Measurements taken from ChEMBL document CHEMBL3046948, “Synthesis and SAR investigation of natural phenylpropene-derived methoxylated cinnamaldehydes and their novel Schiff bases as potent antimicrobial and antioxidant agents” (2013).
≈ marks a conversion by molar mass, not a printed value. Calls of active or inactive are those of the source. No cut-off for these calls is given here.

Tests used:
Format in all cases: functional
Aspergillus niger = experiment: Antimicrobial activity against Aspergillus niger MTCC 404 assessed as growth inhibition after 5 days by broth microdilution method
Aspergillus sydowii = experiment: Antimicrobial activity against Aspergillus sydowii MTCC 4335 assessed as growth inhibition after 5 days by broth microdilution method
Staphylococcus aureus = experiment: Antimicrobial activity against Staphylococcus aureus MTCC 3160 assessed as growth inhibition after 24 hr by broth microdilution method
Bacillus subtilis = experiment: Antimicrobial activity against Bacillus subtilis MTCC 121 assessed as growth inhibition after 24 hr by broth microdilution method
Micrococcus luteus = experiment: Antimicrobial activity against Micrococcus luteus MTCC 2470 assessed as growth inhibition after 24 hr by broth microdilution method
Klebsiella pneumoniae = experiment: Antimicrobial activity against Klebsiella pneumoniae MTCC 109 assessed as growth inhibition after 24 hr by broth microdilution method
Burkholderia cepacia = experiment: Antimicrobial activity against Burkholderia cepacia MTCC 438 assessed as growth inhibition after 24 hr by broth microdilution method
Enterobacter cloacae = experiment: Antimicrobial activity against Enterobacter cloacae MTCC 509 assessed as growth inhibition after 24 hr by broth microdilution method
Trichophyton rubrum = experiment: Antimicrobial activity against Trichophyton rubrum MTCC 296 assessed as growth inhibition after 5 days by broth microdilution method
Pseudomonas aeruginosa = experiment: Antimicrobial activity against Pseudomonas aeruginosa MTCC 424 assessed as growth inhibition after 24 hr by broth microdilution method
Escherichia coli = experiment: Antimicrobial activity against Escherichia coli MTCC 43 assessed as growth inhibition after 24 hr by broth microdilution method
Pichia kudriavzevii = experiment: Antimicrobial activity against Pichia kudriavzevii MTCC 231 assessed as growth inhibition after 24 hr by broth microdilution method
Aspergillus parasiticus = experiment: Antimicrobial activity against Aspergillus parasiticus MTCC 2797 assessed as growth inhibition after 5 days by broth microdilution method
Candida albicans = experiment: Antimicrobial activity against Candida albicans MTCC 3017 assessed as growth inhibition after 24 hr by broth microdilution method

Row | Compound | MIC (Aspergillus niger) | MIC (Staphylococcus aureus) | MIC (Bacillus subtilis) | MIC (Klebsiella pneumoniae; MTCC 109, 24 h) [mM] | MIC (Burkholderia cepacia) | MIC (Trichophyton rubrum; MTCC 296, 120 h) [mM] | MIC (Pseudomonas aeruginosa) | MIC (Escherichia coli) | MIC (Pichia kudriavzevii; MTCC 231, 24 h) [mM] | MIC (Aspergillus parasiticus) | MIC (Candida albicans; MTCC 3017, 24 h) [mM] | MIC (Micrococcus luteus; MTCC 2470, 24 h) [mM] | MIC (Enterobacter cloacae; MTCC 509, 24 h) [mM] | MIC (Aspergillus niger; MTCC 404, 120 h) [mM] | MIC (Aspergillus sydowii; MTCC 4335, 120 h) [mM] | MIC (Staphylococcus aureus; MTCC 3160, 24 h) [mM] | MIC (Bacillus subtilis; MTCC 121, 24 h) [mM] | MIC (Pseudomonas aeruginosa; MTCC 424, 24 h) [mM] | MIC (Escherichia coli; MTCC 43, 24 h) [mM] | MIC (Aspergillus parasiticus; MTCC 2797, 120 h) [mM] | further results
1 | CCCCCCCCCCCCOC(=O)/C=C/c1ccccc1 | inactive | inactive | inactive | 3.16 (≈ 1000 µg/mL) | inactive | 0.79 (≈ 250 µg/mL) | inactive | inactive | 0.39 (≈ 123 µg/mL) | inactive | 0.79 (≈ 250 µg/mL) |  |  |  |  |  |  |  |  |  | MIC (Aspergillus sydowii): inactive; MIC (Micrococcus luteus): inactive; MIC (Enterobacter cloacae): inactive
2 | CN(C)c1ccc(/C=C/C=O)cc1 | inactive | inactive | inactive |  | inactive |  | inactive | inactive |  | inactive |  | 11.4 (≈ 2000 µg/mL) | 11.4 (≈ 2000 µg/mL) |  |  |  |  |  |  |  | MIC (Aspergillus sydowii): inactive; MIC (Klebsiella pneumoniae): inactive; MIC (Trichophyton rubrum): inactive; MIC (Pichia kudriavzevii): inactive; MIC (Candida albicans): inactive
3 | COc1ccc(/C=C/C=O)cc1OC [3,4-DIMETHOXY CINNAMALDEHYDE] |  |  |  | 10.4 (≈ 2000 µg/mL) |  | 2.6 (≈ 500 µg/mL) |  |  | 2.6 (≈ 500 µg/mL) |  | 2.6 (≈ 500 µg/mL) | 2.6 (≈ 500 µg/mL) | 10.4 (≈ 2000 µg/mL) | 5.2 (≈ 1000 µg/mL) | 5.2 (≈ 1000 µg/mL) | 5.2 (≈ 1000 µg/mL) | 5.2 (≈ 1000 µg/mL) | 2.6 (≈ 500 µg/mL) | 10.4 (≈ 2000 µg/mL) | 2.6 (≈ 500 µg/mL) | MIC (Burkholderia cepacia; MTCC 438, 24 h): 5.2 mM (≈ 1000 µg/mL)
4 | O=C/C=C/c1ccccc1 [CINNAMALDEHYDE] |  |  |  | 3.78 (≈ 500 µg/mL) |  | 0.47 (≈ 62.1 µg/mL) |  |  | 0.47 (≈ 62.1 µg/mL) |  | 0.47 (≈ 62.1 µg/mL) | 3.78 (≈ 500 µg/mL) | 1.89 (≈ 250 µg/mL) | 1.89 (≈ 250 µg/mL) | 3.78 (≈ 500 µg/mL) | 1.89 (≈ 250 µg/mL) | 1.89 (≈ 250 µg/mL) | 1.89 (≈ 250 µg/mL) | 1.89 (≈ 250 µg/mL) | 3.78 (≈ 500 µg/mL) | MIC (Burkholderia cepacia; MTCC 438, 24 h): 1.89 mM (≈ 250 µg/mL)
5 | COc1ccc(/C=C/C=O)cc1 [PARA-METHOXY CINNAMALDEHYDE] |  |  |  | 3.08 (≈ 500 µg/mL) | inactive | 0.77 (≈ 125 µg/mL) |  |  | 0.77 (≈ 125 µg/mL) |  | 0.77 (≈ 125 µg/mL) | 3.08 (≈ 500 µg/mL) | 3.08 (≈ 500 µg/mL) | 3.08 (≈ 500 µg/mL) | 3.08 (≈ 500 µg/mL) | 3.08 (≈ 500 µg/mL) | 6.16 (≈ 999 µg/mL) | 0.77 (≈ 125 µg/mL) | 3.08 (≈ 500 µg/mL) | 3.08 (≈ 500 µg/mL) | 
6 | CCOc1ccc(/C=C/C=O)cc1OC |  |  |  | 9.7 (≈ 2000 µg/mL) |  | 2.42 (≈ 499 µg/mL) |  |  | 4.85 (≈ 1000 µg/mL) |  | 2.42 (≈ 499 µg/mL) | 4.85 (≈ 1000 µg/mL) | 9.7 (≈ 2000 µg/mL) | 4.85 (≈ 1000 µg/mL) | 4.85 (≈ 1000 µg/mL) | 2.42 (≈ 499 µg/mL) | 4.85 (≈ 1000 µg/mL) | 4.85 (≈ 1000 µg/mL) | 9.7 (≈ 2000 µg/mL) | 2.42 (≈ 499 µg/mL) | MIC (Burkholderia cepacia; MTCC 438, 24 h): 4.85 mM (≈ 1000 µg/mL)
7 | COc1cc(OC)c(OC)cc1/C=C/C=O | inactive | inactive | inactive |  | inactive | 8.99 (≈ 2000 µg/mL) | inactive | inactive | 8.99 (≈ 2000 µg/mL) | inactive | 8.99 (≈ 2000 µg/mL) | 2.25 (≈ 500 µg/mL) |  |  | 4.5 (≈ 1000 µg/mL) |  |  |  |  |  | MIC (Klebsiella pneumoniae): inactive; MIC (Enterobacter cloacae): inactive
8 | COc1ccc(/C=C/C=O)c(Br)c1OC | inactive | inactive | inactive |  | inactive |  | inactive | inactive |  | inactive |  |  |  |  |  |  |  |  |  |  | MIC (Aspergillus sydowii): inactive; MIC (Micrococcus luteus): inactive; MIC (Klebsiella pneumoniae): inactive; MIC (Enterobacter cloacae): inactive; MIC (Trichophyton rubrum): inactive; MIC (Pichia kudriavzevii): inactive; MIC (Candida albicans): inactive
9 | OC/C=C/c1ccccc1 [CINNAMIC ALCOHOL] |  |  |  | 3.72 (≈ 499 µg/mL) |  | 1.86 (≈ 250 µg/mL) |  |  | 3.72 (≈ 499 µg/mL) |  | 1.86 (≈ 250 µg/mL) | 7.45 (≈ 1000 µg/mL) | 7.45 (≈ 1000 µg/mL) | 3.72 (≈ 499 µg/mL) | 3.72 (≈ 499 µg/mL) | 14.9 (≈ 2000 µg/mL) | 7.45 (≈ 1000 µg/mL) | 3.72 (≈ 499 µg/mL) | 7.45 (≈ 1000 µg/mL) | 3.72 (≈ 499 µg/mL) | MIC (Burkholderia cepacia; MTCC 438, 24 h): 1.86 mM (≈ 250 µg/mL)
10 | NYSTATIN | 0.03 mM |  |  |  |  |  |  |  |  | 0.06 mM |  |  |  |  |  |  |  |  |  |  | MIC (Aspergillus sydowii): 0.004 mM; MIC (Trichophyton rubrum): 0.008 mM; MIC (Pichia kudriavzevii): 0.03 mM; MIC (Candida albicans): 0.008 mM
11 | C/C=C/c1cc(OC)c(OC)cc1OC [TRANS-ASARONE] |  | inactive | inactive |  | inactive | 0.6 (≈ 125 µg/mL) | inactive | inactive | 1.2 (≈ 250 µg/mL) |  | 0.6 (≈ 125 µg/mL) |  | 9.6 (≈ 2000 µg/mL) | 4.8 (≈ 1000 µg/mL) | 2.4 (≈ 500 µg/mL) |  |  |  |  | 1.2 (≈ 250 µg/mL) | MIC (Micrococcus luteus): inactive; MIC (Klebsiella pneumoniae): inactive
